Molecular target: T1, PDE10A2 (Homo sapiens, UniProt Q9Y233)
T1 construct: residues serine 449 to aspartate 789; His6 (H6) with thrombin cleavage site (N, cleaved yes); made in house; host or cells: E. coli BL21(DE3) pLysS
Test: PDE10A2 inhibition, Scintillation Proximity Assay (SPA)
Type: biochemical
Settings: catalytic domain of human PDE10A2 (S449-D789), 0.25 nM enzyme, 50 nM cGMP + 50 nM [3H]-cGMP, 30 minutes at room temperature
Method: The following tests were carried out in order to determine the activity of the compounds of the present invention. PDE10 activity of the compounds of the present invention is determined using a Scintillation Proximity Assay (SPA)-based method similar to the one previously described (Fawcett, L. et al., Proc Natl Acad Sci USA (2000) 97(7):3702-3707).
PDE10A1 and PDE10A2 are two splice variants of PDE10A. There are these 2 splice variants known, which differ in the N-terminal part of the protein. The catalytic domains of PDE10A1 and PDE10A2 are identical. The assay for PDE10A2 described below is therefore also representative for PDE10A1 and also for PDE10A in general.
The PDE10A2 assay was performed in a two step procedure in 96-well micro titer plates. The reaction mixture of 80 μl contained 20 mM HEPES/10 mM MgCl2/[…] (pH 7.5), 50 nM cGMP (Sigma) and 50 nM [^3H]-cGMP (GE Healthcare), 0.25 nM PDE10A2 with or without a specific test compound. A range of concentrations of the potential inhibitor was used to generate data for calculating the concentration of inhibitor resulting in 50% of the effect (e.g. IC50, the concentration of the competitor inhibiting PDE10A2 activity 50%). Non-specific activity was tested without the enzyme. The reaction was initiated by addition of the substrate solution (cGMP and [^3H]-cGMP) and allowed to progress for 30 minutes at room temperature. The reaction was terminated by transferring 50 μl of the reaction mixture into an OptiPlate (Perkin Elmer) containing 25 μl of YSi-SPA scintillation beads (GE Healthcare) in 18 mM zinc sulphate solution (stop reagent). After 1 h under shaking, the plate was centrifuged one minute at 1000 rpm to allow beads to settle. Afterwards, radioactive counts were measured on a Perkin Elmer TopCount Scintillation plate reader.
The catalytic domain of human PDE10A2, residues serine 449 to aspartate 789, was amplified by PCR using cDNA (Origene) and the oligonucleotides 5′-GGGGACAAGTTT […]-3′ (SEQ ID NO. 1) (with AttB1 recombination site in bold and thrombin protease cleavage site in italics) and 5′-[…] GCTG-3′ (SEQ ID NO. 2) (with AttB2 recombination site in bold) which conferred Gateway recombination sites. The PCR product was used in a BP recombination reaction with pDONR221 to generate pENTR Thm-PDE10A2(S449-D789) which was DNA sequence verified and then used in an LR recombination reaction with a Gateway modified version of pET11a. The resulting expression vector, placT7.2H6-(gw1)-Thm-PDE10A2(S449-D789) was DNA sequence confirmed and transformed into E. coli strain BL21(DE3) pLysS and recombinant protein was produced in TB medium at 20° C. by induction to a final IPTG concentration of 0.5 mM at an optical density of 1.0 at 600 nm for 20 hours. About 30% of the protein was in the soluble fraction of the cell homogenate. The protein was purified using sequential chromatography on Ni-NTA and HiTrapQ/HiTrapS. After thrombin digest at room temperature a HiTrapChelating/HiTrap Benzamindin chromatography removed impurities, uncleaved protein and thrombin. Final purification of PDE10A2(S449-D789) was performed on a Superdex 75 size exclusion chromatography equilibrated with 25 mM HEPES pH 8.4, 0.15 M NaCl. The yield of pure protein was 2 mg/liter of culture volume is relatively low. The purity of the protein was >95%, monomeric and monodisperse as shown by SDS-PAGE, HPLC and analytical ultracentrifugation.

T1 sequence (Q9Y233 715-1055): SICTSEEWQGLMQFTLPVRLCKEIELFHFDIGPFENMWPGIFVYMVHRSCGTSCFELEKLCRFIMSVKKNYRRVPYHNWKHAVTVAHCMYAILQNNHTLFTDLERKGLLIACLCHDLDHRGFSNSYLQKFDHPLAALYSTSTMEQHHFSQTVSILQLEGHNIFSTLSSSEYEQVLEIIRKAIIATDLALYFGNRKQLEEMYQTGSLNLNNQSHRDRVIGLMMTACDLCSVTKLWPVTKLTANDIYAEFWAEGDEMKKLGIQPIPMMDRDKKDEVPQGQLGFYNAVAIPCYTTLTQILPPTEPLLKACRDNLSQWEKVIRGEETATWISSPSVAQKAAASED

IC50	SMILES
222 nM	O=c1ccn(-c2cccc(OC(F)F)c2)nc1-c1ccnn1-c1cccc(F)c1 [Example 98, 1-(3-Difluoromethoxy-phenyl)-3-[2-(3-fluoro-phenyl)-2H-pyrazol-3-yl]-1H-pyridazin-4-one]
105 nM	O=c1ccn(-c2ccc(OC(F)F)cc2)nc1-c1ccnn1-c1cccc(F)c1 [Example 100, 1-(4-Difluoromethoxy-phenyl)-3-[2-(3-fluoro-phenyl)-2H-pyrazol-3-yl]-1H-pyridazin-4-one]
37 nM	O=c1ccn(-c2ccc3c(c2)OC(F)(F)O3)nc1-c1ccnn1-c1ccc2c(c1)OCCO2 [Example 101, 1-(2,2-Difluoro-benzo[1,3]dioxol-5-yl)-3-[2-(2,3-dihydro-benzo[1,4]dioxin-6-yl)-2H-pyrazol-3-yl]-1H-pyridazin-4-one]
54 nM	CS(=O)(=O)c1cccc(-n2ccc(=O)c(-c3ccnn3-c3ccc(F)cc3F)n2)c1 [Example 105, 3-[2-(2,4-Difluoro-phenyl)-2H-pyrazol-3-yl]-1-(3-methanesulfonyl-phenyl)-1H-pyridazin-4-one]
40 nM	CS(=O)(=O)c1cccc(-n2ccc(=O)c(-c3ccnn3-c3cccc4c3OCO4)n2)c1 [Example 106, 3-(2-Benzo[1,3]dioxol-4-yl-2H-pyrazol-3-yl)-1-(3-methanesulfonyl-phenyl)-1H-pyridazin-4-one]
72 nM	O=c1ccn(-c2cccc(F)c2)nc1-c1ccnn1-c1ccc2c(c1)OCO2 [Example 109, 3-(2-Benzo[1,3]dioxol-5-yl-2H-pyrazol-3-yl)-1-(3-fluoro-phenyl)-1H-pyridazin-4-one]
82 nM	N#Cc1cccc(-n2nccc2-c2nn(-c3cccc4c3OCO4)ccc2=O)c1 [Example 114, 3-[5-(1-Benzo[1,3]dioxol-4-yl-4-oxo-1,4-dihydro-pyridazin-3-yl)-pyrazol-1-yl]-benzonitrile]
33 nM	O=c1ccn(-c2cccc(OC(F)F)c2)nc1-c1ccnn1-c1cc(F)ccc1F [Example 116, 1-(3-Difluoromethoxy-phenyl)-3-[2-(2,5-difluoro-phenyl)-2H-pyrazol-3-yl]-1H-pyridazin-4-one]
28 nM	CS(=O)(=O)c1cccc(-n2ccc(=O)c(-c3ccnn3-c3cccc(OC(F)(F)F)c3)n2)c1 [Example 122, 1-(3-Methanesulfonyl-phenyl)-3-[2-(3-trifluoromethoxy-phenyl)-2H-pyrazol-3-yl]-1H-pyridazin-4-one]
57 nM	Cc1cc(-n2nccc2-c2nn(-c3cccc(OC(F)(F)F)c3)ccc2=O)ccn1 [Example 124, 3-[2-(2-Methyl-pyridin-4-yl)-2H-pyrazol-3-yl]-1-(3-trifluoromethoxy-phenyl)-1H-pyridazin-4-one]
80 nM	N#Cc1cccc(-n2nccc2-c2nn(-c3cccc4c3OC(F)(F)O4)ccc2=O)c1 [Example 129, 3-{5-[1-(2,2-Difluoro-benzo[1,3]dioxol-4-yl)-4-oxo-1,4-dihydro-pyridazin-3-yl]-pyrazol-1-yl}-benzonitrile]
71 nM	Cc1cc(-n2nccc2-c2nn(-c3cccc(S(=O)(=O)N(C)C)c3)ccc2=O)ccn1 [Example 133, N,N-Dimethyl-3-{3-[2-(2-methyl-pyridin-4-yl)-2H-pyrazol-3-yl]-4-oxo-4H-pyridazin-1-yl}-benzenesulfonamide]

The next lines start with the compound.

SMILES	IC50
O=c1ccn(-c2cccc(OC(F)(F)F)c2)nc1-c1ccnn1-c1cccc(Cl)c1 [Example 48, 3-[2-(3-Chloro-phenyl)-2H-pyrazol-3-yl]-1-(3-trifluoromethoxy-phenyl)-1H-pyridazin-4-one]	9 nM
O=c1ccn(-c2cccc(OC(F)(F)F)c2)nc1-c1ccnn1-c1ccc(F)cc1 [Example 49, 3-[2-(4-Fluoro-phenyl)-2H-pyrazol-3-yl]-1-(3-trifluoromethoxy-phenyl)-1H-pyridazin-4-one]	27 nM
O=c1ccn(-c2cccc(OC(F)(F)F)c2)nc1-c1ccnn1-c1nccc2c1CCCC2 [Example 58, 3-[2-(5,6,7,8-Tetrahydro-isoquinolin-1-yl)-2H-pyrazol-3-yl]-1-(3-trifluoromethoxy-phenyl)-1H-pyridazin-4-one]	67 nM
CS(=O)(=O)c1cccc(-n2ccc(=O)c(-c3ccnn3-c3cccc(Cl)c3)n2)c1 [Example 64, 3-[2-(3-Chloro-phenyl)-2H-pyrazol-3-yl]-1-(3-methanesulfonyl-phenyl)-1H-pyridazin-4-one]	39 nM
O=C1CCC(c2ccc(-n3nccc3-c3nn(-c4cccc(OC(F)(F)F)c4)ccc3=O)cc2)=NN1 [Example 78, 3-{2-[4-(6-Oxo-1,4,5,6-tetrahydro-pyridazin-3-yl)-phenyl]-2H-pyrazol-3-yl}-1-(3-trifluoromethoxy-phenyl)-1H-pyridazin-4-one]	1150 nM
O=c1ccn(-c2cccc(OC(F)(F)F)c2)nc1-c1ccnn1-c1ccc2c(c1)OCCO2 [Example 79, 3-[2-(2,3-Dihydro-benzo[1,4]dioxin-6-yl)-2H-pyrazol-3-yl]-1-(3-trifluoromethoxy-phenyl)-1H-pyridazin-4-one]	7 nM
O=c1ccn(-c2cccc(OC(F)(F)F)c2)nc1-c1ccnn1-c1cccc2ccccc12 [Example 80, 3-(2-Naphthalen-1-yl-2H-pyrazol-3-yl)-1-(3-trifluoromethoxy-phenyl)-1H-pyridazin-4-one]	3 nM
CS(=O)(=O)c1cccc(-n2ccc(=O)c(-c3ccnn3-c3cccc4ccccc34)n2)c1 [Example 85, 1-(3-Methanesulfonyl-phenyl)-3-(2-naphthalen-1-yl-2H-pyrazol-3-yl)-1H-pyridazin-4-one]	2 nM
CS(=O)(=O)c1cccc(-n2ccc(=O)c(-c3ccnn3-c3cccc(F)c3)n2)c1 [Example 86, 3-[2-(3-Fluoro-phenyl)-2H-pyrazol-3-yl]-1-(3-methanesulfonyl-phenyl)-1H-pyridazin-4-one]	68 nM
CS(=O)(=O)c1cccc(-n2ccc(=O)c(-c3ccnn3-c3cc(F)ccc3F)n2)c1 [Example 87, 3-[2-(2,5-Difluoro-phenyl)-2H-pyrazol-3-yl]-1-(3-methanesulfonyl-phenyl)-1H-pyridazin-4-one]	49 nM
CC(C)c1ccc(-n2nccc2-c2nn(-c3cccc(S(C)(=O)=O)c3)ccc2=O)cc1 [Example 88, 3-[2-(4-Isopropyl-phenyl)-2H-pyrazol-3-yl]-1-(3-methanesulfonyl-phenyl)-1H-pyridazin-4-one]	629 nM
CCc1cnn(-c2ccccc2)c1-c1nn(-c2cccc(S(C)(=O)=O)c2)ccc1=O [Example 89, 3-(4-Ethyl-2-phenyl-2H-pyrazol-3-yl)-1-(3-methanesulfonyl-phenyl)-1H-pyridazin-4-one]	2270 nM
Cc1cc(-n2nccc2-c2nn(-c3cccc(S(C)(=O)=O)c3)ccc2=O)ccn1 [Example 90, 1-(3-Methanesulfonyl-phenyl)-3-[2-(2-methyl-pyridin-4-yl)-2H-pyrazol-3-yl]-1H-pyridazin-4-one]	37 nM
CS(=O)(=O)c1cccc(-n2ccc(=O)c(-c3ccnn3-c3cccc(C#N)c3)n2)c1 [Example 94, 3-{5-[1-(3-Methanesulfonyl-phenyl)-4-oxo-1,4-dihydro-pyridazin-3-yl]-pyrazol-1-yl}-benzonitrile]	55 nM
COc1ccc(-c2csc(-n3nccc3-c3nn(-c4cccc(S(C)(=O)=O)c4)ccc3=O)n2)c(F)c1 [Example 95, 3-{2-[4-(2-Fluoro-4-methoxy-phenyl)-thiazol-2-yl]-2H-pyrazol-3-yl}-1-(3-methanesulfonyl-phenyl)-1H-pyridazin-4-one]	1200 nM
